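How tested: cells in 96-well plates exposed to compound for 48 hours at five concentrations. GI50: concentration for 50% inhibition of growth.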 Activity calls are given as the source filed them. Rule as the data show it: active = GI50 up to about 1.1 µM and inactive = higher.
Assays:
Test in all cases: NCI-60 cell line screen, 48 h
[1] = test system: DMS-114
[2] = test system: SR
[3] = test system: SF-539
[4] = test system: RXF 631
[5] = test system: 786-0
[6] = test system: OVCAR-4
[7] = test system: CCRF-CEM
[8] = test system: SNB-75
[9] = test system: UO-31
[10] = test system: M14
[11] = test system: K562
[12] = test system: SN12C
[13] = test system: XF498
[14] = test system: DMS-273
[15] = test system: NCI-H522
[16] = test system: IGROV-1
[17] = test system: HCT-116
[18] = test system: HCT-15
[19] = test system: HOP-92
[20] = test system: HOP-62
[21] = test system: CAKI-1
[22] = test system: LXFL 529
[23] = test system: NCI-H226
[24] = test system: HCC 2998
[25] = test system: MOLT-4
[26] = test system: COLO 205
[27] = test system: NCI-H460
[28] = test system: SK-MEL-28
[29] = test system: M19-MEL
[30] = test system: UACC-62
[31] = test system: DLD-1
[32] = test system: HL-60
[33] = test system: A498
[34] = test system: NCI-H23
[35] = test system: RPMI-8226
[36] = test system: Malme-3M
[37] = test system: SF-268
[38] = test system: ACHN
[39] = test system: SK-MEL-2
[40] = test system: SK-OV-3
[41] = test system: SW-620
[42] = test system: OVCAR-3
[43] = test system: SNB-78
[44] = test system: SK-MEL-5
[45] = test system: EKVX
[46] = test system: KM-20L2
[47] = test system: KM12
[48] = test system: OVCAR-8
[49] = test system: HT-29
[50] = test system: SNB-19
[51] = test system: UACC-257
[52] = test system: OVCAR-5
[53] = test system: A549
[54] = test system: SF-295
[55] = test system: RXF 393
[56] = test system: TK-10
[57] = test system: U-251
[58] = test system: LOX IMVI
[59] = test system: HOP-18

## Cc1[nH]c(=O)nc(N(CCO)/N=C/c2ccccc2Cl)c1C(=O)Nc1cc(Cl)cc(Cl)c1
[1]
  GI50: 41.2 µM (inactive)
[2]
  GI50: 46.1 µM (inactive)
[3]
  GI50: 24.5 µM (inactive)
[4]
  GI50: 29.2 µM (inactive)
[5]
  GI50: 20.1 µM (inactive)
[6]
  GI50: 31.6 µM (inactive)
[7]
  GI50: 64.1 µM (inactive)
[8]
  GI50: 17.7 µM (inactive)
[9]
  GI50: 43.4 µM (inactive)
[10]
  GI50: 67.3 µM (inactive)
[11]
  GI50: 37.3 µM (inactive)
[12]
  GI50: 43.7 µM (inactive)
[13]
  GI50: > 100 µM (inactive)
[14]
  GI50: 43.8 µM (inactive)
[15]
  GI50: 23.1 µM (inactive)
[16]
  GI50: > 100 µM (inactive)
[17]
  GI50: 23 µM (inactive)
[18]
  GI50: > 100 µM
[19]
  GI50: 23.9 µM (inactive)
[20]
  GI50: 26.5 µM (inactive)
[21]
  GI50: 45.4 µM (inactive)
[22]
  GI50: 35.2 µM (inactive)
[23]
  GI50: 23.1 µM (inactive)
[24]
  GI50: 86.5 µM (inactive)
[25]
  GI50: 77.3 µM (inactive)
[26]
  GI50: > 100 µM (inactive)
[27]
  GI50: 27.9 µM (inactive)
[28]
  GI50: 36.1 µM (inactive)
[29]
  GI50: > 100 µM (inactive)
[30]
  GI50: > 100 µM (inactive)
[31]
  GI50: 53.1 µM (inactive)
[32]
  GI50: > 100 µM (inactive)
[33]
  GI50: 24.6 µM (inactive)
[34]
  GI50: 34.9 µM (inactive)
[35]
  GI50: 40.2 µM (inactive)
[36]
  GI50: > 10 µM (inactive)
[37]
  GI50: 31.8 µM (inactive)
[38]
  GI50: 29.2 µM (inactive)
[39]
  GI50: 48.9 µM (inactive)
[40]
  GI50: 20.4 µM (inactive)

## O=C(CC(=O)C1CCOC1=O)C(=O)Nc1ccc(Cl)cc1 (centres undefined)
[41]
  GI50: > 100 µM (inactive)
[1]
  GI50: > 100 µM (inactive)
[42]
  GI50: > 100 µM (inactive)
[3]
  GI50: > 100 µM (inactive)
[4]
  GI50: > 100 µM (inactive)
[43]
  GI50: > 100 µM (inactive)
[5]
  GI50: > 100 µM (inactive)
[44]
  GI50: > 100 µM (inactive)
[45]
  GI50: > 100 µM (inactive)
[6]
  GI50: > 100 µM (inactive)
[46]
  GI50: > 100 µM (inactive)
[7]
  GI50: > 100 µM (inactive)
[47]
  GI50: > 100 µM (inactive)
[8]
  GI50: > 100 µM (inactive)
[48]
  GI50: > 100 µM (inactive)
[49]
  GI50: > 100 µM (inactive)
[9]
  GI50: > 100 µM (inactive)
[10]
  GI50: > 100 µM (inactive)
[11]
  GI50: > 100 µM (inactive)
[50]
  GI50: > 100 µM (inactive)
[12]
  GI50: > 100 µM (inactive)
[14]
  GI50: > 100 µM (inactive)
[15]
  GI50: > 100 µM (inactive)
[16]
  GI50: > 100 µM (inactive)
[17]
  GI50: > 100 µM (inactive)
[18]
  GI50: > 100 µM
[19]
  GI50: > 100 µM (inactive)
[20]
  GI50: > 100 µM (inactive)
[21]
  GI50: > 100 µM (inactive)
[22]
  GI50: > 100 µM (inactive)
[51]
  GI50: > 100 µM (inactive)
[23]
  GI50: > 100 µM (inactive)
[52]
  GI50: > 100 µM (inactive)
[24]
  GI50: > 100 µM (inactive)
[53]
  GI50: > 100 µM (inactive)
[54]
  GI50: > 100 µM (inactive)
[26]
  GI50: > 100 µM (inactive)
[27]
  GI50: > 100 µM (inactive)
[28]
  GI50: > 100 µM (inactive)
[29]
  GI50: > 100 µM (inactive)
[55]
  GI50: > 100 µM (inactive)
[30]
  GI50: > 100 µM (inactive)
[31]
  GI50: > 100 µM (inactive)
[32]
  GI50: > 100 µM (inactive)
[56]
  GI50: > 100 µM (inactive)
[33]
  GI50: > 100 µM (inactive)
[57]
  GI50: > 100 µM (inactive)
[58]
  GI50: > 100 µM (inactive)
[34]
  GI50: > 100 µM (inactive)
[35]
  GI50: > 100 µM (inactive)
[36]
  GI50: > 100 µM (inactive)
[37]
  GI50: > 100 µM (inactive)
[38]
  GI50: > 100 µM (inactive)
[39]
  GI50: > 100 µM (inactive)
[40]
  GI50: > 100 µM (inactive)

## N#Cc1cccc(NC(=O)c2ccc(C(=O)O)c(C(=O)c3ccc(C(=O)O)c(C(=O)Nc4cccc(C#N)c4)c3)c2)c1
[41]
  GI50: > 100 µM (inactive)
[1]
  GI50: > 100 µM (inactive)
[42]
  GI50: > 100 µM (inactive)
[3]
  GI50: > 100 µM (inactive)
[43]
  GI50: > 100 µM (inactive)
[5]
  GI50: > 100 µM (inactive)
[44]
  GI50: > 100 µM (inactive)
[45]
  GI50: > 100 µM (inactive)
[6]
  GI50: > 100 µM (inactive)
[46]
  GI50: > 100 µM (inactive)
[7]
  GI50: > 100 µM (inactive)
[47]
  GI50: > 100 µM (inactive)
[8]
  GI50: > 100 µM (inactive)
[48]
  GI50: > 100 µM (inactive)
[49]
  GI50: > 100 µM (inactive)
[9]
  GI50: > 100 µM (inactive)
[59]
  GI50: > 100 µM (inactive)
[10]
  GI50: > 100 µM (inactive)
[11]
  GI50: > 100 µM (inactive)
[50]
  GI50: > 100 µM (inactive)
[12]
  GI50: > 100 µM (inactive)
[13]
  GI50: > 100 µM (inactive)
[14]
  GI50: > 100 µM (inactive)
[15]
  GI50: > 100 µM (inactive)
[16]
  GI50: > 100 µM (inactive)
[17]
  GI50: > 100 µM (inactive)
[18]
  GI50: > 100 µM
[19]
  GI50: > 100 µM (inactive)
[20]
  GI50: > 100 µM (inactive)
[21]
  GI50: > 100 µM (inactive)
[22]
  GI50: > 100 µM (inactive)
[51]
  GI50: > 100 µM (inactive)
[23]
  GI50: > 100 µM (inactive)
[52]
  GI50: > 100 µM (inactive)
[53]
  GI50: > 100 µM (inactive)
[25]
  GI50: > 100 µM (inactive)
[54]
  GI50: > 100 µM (inactive)
[26]
  GI50: > 100 µM (inactive)
[27]
  GI50: > 100 µM (inactive)
[29]
  GI50: > 100 µM (inactive)
[55]
  GI50: > 100 µM (inactive)
[30]
  GI50: > 100 µM (inactive)
[31]
  GI50: > 100 µM (inactive)
[32]
  GI50: > 100 µM (inactive)
[56]
  GI50: > 100 µM (inactive)
[33]
  GI50: > 100 µM (inactive)
[57]
  GI50: > 100 µM (inactive)
[58]
  GI50: > 100 µM (inactive)
[34]
  GI50: > 100 µM (inactive)
[35]
  GI50: > 100 µM (inactive)
[36]
  GI50: > 100 µM (inactive)
[37]
  GI50: > 100 µM (inactive)
[39]
  GI50: > 100 µM (inactive)
[40]
  GI50: > 100 µM (inactive)
